The structures appear in SMILES notation.

The target of data set [1] is T1, Tyrosine-protein kinase BTK (Homo sapiens, UniProt Q06187). The data set is described as follows: Inhibition of BTK (unknown origin).
Data set [2] concerns the target T2, Tyrosine-protein kinase BTK (Homo sapiens, UniProt Q06187, C481S). The data set is described as follows: Induction of degradation of Ibrutinib-resistant BTK C481S mutant (unknown origin).
Data set [3] concerns the target von Hippel-Lindau disease tumor suppressor/Tyrosine-protein kinase BTK (Homo sapiens, UniProt Q06187+P40337). The data set is described as follows: PROTAC activity at VHL/BTK (unknown origin) assessed as induction of BTK degradation. The class given is protein assay.
Data set [4] can be described thus: Inhibition of BTK C481Y mutant (unknown origin). Set-up: species or system Homo sapiens.
Data set [5] has as its target T1, Tyrosine-protein kinase BTK. In words: Induction of degradation of BTK in human Ramos cells at 10 nM relative to control. The class given is cell-based.
Data set [6] can be described thus: Inhibition of cell proliferation in human HBL1 cells harboring Ibrutinib-resistant BTK C481S mutant assessed as cell growth inhibition. The class given is functional.
The target in data set [7] is T1, Tyrosine-protein kinase BTK. In words: Induction of degradation of BTK in human Ramos cells at 100 nM relative to control. In kind it is cell-based.
The target of data set [8] is Protein cereblon/Tyrosine-protein kinase BTK (Homo sapiens, UniProt Q06187+Q96SW2). In words: PROTAC activity at CRBN/BTK (unknown origin) assessed as BTK degradation. In kind it is protein assay.
Chain of Protein cereblon/Tyrosine-protein kinase BTK (Q06187 whole entry): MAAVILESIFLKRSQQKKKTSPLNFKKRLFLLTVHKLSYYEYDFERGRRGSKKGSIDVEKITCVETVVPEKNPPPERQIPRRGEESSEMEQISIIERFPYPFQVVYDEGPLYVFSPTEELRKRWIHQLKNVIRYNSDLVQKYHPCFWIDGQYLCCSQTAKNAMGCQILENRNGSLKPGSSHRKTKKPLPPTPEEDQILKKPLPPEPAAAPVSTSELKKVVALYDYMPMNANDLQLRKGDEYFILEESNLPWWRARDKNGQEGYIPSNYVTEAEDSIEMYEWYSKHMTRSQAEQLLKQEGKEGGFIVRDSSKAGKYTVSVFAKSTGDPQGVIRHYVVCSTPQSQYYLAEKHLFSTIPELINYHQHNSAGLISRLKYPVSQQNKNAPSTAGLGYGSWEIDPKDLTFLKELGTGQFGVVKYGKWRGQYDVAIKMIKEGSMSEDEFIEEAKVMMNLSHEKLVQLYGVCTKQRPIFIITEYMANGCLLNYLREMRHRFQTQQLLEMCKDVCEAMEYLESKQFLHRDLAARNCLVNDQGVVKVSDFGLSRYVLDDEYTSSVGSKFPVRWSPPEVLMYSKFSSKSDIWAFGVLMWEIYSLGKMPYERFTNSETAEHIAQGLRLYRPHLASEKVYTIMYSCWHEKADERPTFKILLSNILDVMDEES
Chain of Protein cereblon/Tyrosine-protein kinase BTK (Q96SW2 whole entry): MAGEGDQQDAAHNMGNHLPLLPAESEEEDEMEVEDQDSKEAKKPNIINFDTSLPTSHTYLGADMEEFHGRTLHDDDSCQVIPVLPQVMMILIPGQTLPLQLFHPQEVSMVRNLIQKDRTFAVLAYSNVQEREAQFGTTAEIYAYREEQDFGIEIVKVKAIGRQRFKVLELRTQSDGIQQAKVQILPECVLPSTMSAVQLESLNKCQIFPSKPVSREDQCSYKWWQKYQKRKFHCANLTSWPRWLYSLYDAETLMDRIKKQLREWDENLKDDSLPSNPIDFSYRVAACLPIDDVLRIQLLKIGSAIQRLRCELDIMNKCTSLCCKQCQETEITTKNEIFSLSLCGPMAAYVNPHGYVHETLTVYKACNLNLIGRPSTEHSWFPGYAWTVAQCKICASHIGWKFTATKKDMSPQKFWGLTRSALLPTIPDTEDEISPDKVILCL
Data set [9] in a line: Intrinsic clearance in mouse. In kind it is ADME, organism-based. The following applies: in vivo.
In data set [10] the target is T1, Tyrosine-protein kinase BTK. In words: Inhibition of wild-type BTK (unknown origin).
Data set [11] addresses T2, Tyrosine-protein kinase BTK. The data set is described as follows: Inhibition of BTK C481S mutant (unknown origin).

T1 sequence (Q06187 whole entry): as the sequence (Q06187 whole entry) above
T2 sequence (Q06187 2-659 C481S limits assumed): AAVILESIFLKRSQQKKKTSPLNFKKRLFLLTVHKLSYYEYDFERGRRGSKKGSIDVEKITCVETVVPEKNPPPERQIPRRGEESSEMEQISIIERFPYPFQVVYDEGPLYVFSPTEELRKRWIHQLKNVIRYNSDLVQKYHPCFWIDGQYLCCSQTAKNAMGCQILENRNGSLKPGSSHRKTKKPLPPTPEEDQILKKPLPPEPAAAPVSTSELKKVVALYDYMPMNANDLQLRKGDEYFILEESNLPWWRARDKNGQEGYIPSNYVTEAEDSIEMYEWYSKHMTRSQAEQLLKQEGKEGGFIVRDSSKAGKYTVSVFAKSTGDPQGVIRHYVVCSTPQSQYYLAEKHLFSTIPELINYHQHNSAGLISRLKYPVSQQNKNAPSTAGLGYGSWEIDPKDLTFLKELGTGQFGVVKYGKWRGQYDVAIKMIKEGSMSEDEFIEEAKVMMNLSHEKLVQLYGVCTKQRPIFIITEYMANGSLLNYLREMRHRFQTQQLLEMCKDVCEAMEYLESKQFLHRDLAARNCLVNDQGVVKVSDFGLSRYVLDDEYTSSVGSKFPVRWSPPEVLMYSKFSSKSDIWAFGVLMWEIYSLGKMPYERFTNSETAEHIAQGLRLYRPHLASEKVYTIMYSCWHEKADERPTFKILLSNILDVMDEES
Chain of von Hippel-Lindau disease tumor suppressor/Tyrosine-protein kinase BTK (Q06187 whole entry): as the sequence (Q06187 whole entry) above
Chain of von Hippel-Lindau disease tumor suppressor/Tyrosine-protein kinase BTK (P40337 whole entry): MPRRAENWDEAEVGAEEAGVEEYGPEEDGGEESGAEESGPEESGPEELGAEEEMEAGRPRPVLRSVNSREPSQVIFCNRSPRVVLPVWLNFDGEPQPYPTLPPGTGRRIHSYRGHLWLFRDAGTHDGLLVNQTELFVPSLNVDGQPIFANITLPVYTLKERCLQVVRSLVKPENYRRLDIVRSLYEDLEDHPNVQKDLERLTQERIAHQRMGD

In the case of `Cc1cc(C(N)=O)c2[nH]c3cc(C(C)(C)O)ccc3c2c1-c1cccc(-n2c(=O)[nH]c3c(F)cccc3c2=O)c1O`, the IC50 in [1] turned out to be 0.3 nM. This counts as sub-nanomolar.

`COc1cc(Nc2c(C#N)cnc3cc(OCCCN4CCN(CCOCCOCCNc5cccc6c5C(=O)N(C5CCC(=O)NC5=O)C6=O)CC4)c(OC)cc23)c(Cl)cc1Cl` (stereo not drawn) came in with a DC50 in data set [2] of 30 nM.

Regarding `Nc1ncnc2c1c(-c1ccc(Oc3ccccc3)cc1)nn2C1CCN(CCOCCOCCOc2ccc3c(c2)CN(C2CCC(=O)NC2=O)C3=O)CC1` (stereo not drawn), the DC50 in data set [3] came to 7.9 nM. Regarding `Nc1nccn2c([C@@H]3CC[C@H]4CN(CCO)CC(=O)N4C3)nc(-c3ccc(C(=O)Nc4cc(C(F)(F)F)ccn4)cc3)c12`, half-maximal inhibition in [4] (IC50) required 0.1 nM. Turning to `Nc1ncnc2c1c(-c1ccc(Oc3ccccc3)cc1)nn2[C@@H]1CCCN(C(=O)c2cn(CCOCCOCCOCCNc3cccc4c3C(=O)N(C3CCC(=O)NC3=O)C4=O)nn2)C1` (stereo partly drawn), the Activity worked out at 73% in [5] and 89% in data set [7]. Further, the GI50 in data set [6] came to 28 nM. The DC50 in data set [8] was found to be 6.3 nM. For the molecule `Nc1ncnc2c1c(-c1ccc(Oc3ccccc3)cc1)nn2C1CCN(CCOCCOCC(=O)Nc2ccc3c(c2)C(=O)N(C2CCC(=O)NC2=O)C3=O)CC1` (stereo not drawn), the CLint scaled in [9] stood at 1660 mL/min/kg. For `Nc1ncnc2c1c(-c1ccc(Oc3ccccc3)cc1)nn2[C@@H]1CCCN(Cc2cn(CCOCCOCCOCCNc3cccc4c3CN(C3CCC(=O)NC3=O)C4=O)nn2)C1` (stereo partly drawn), the GI50 in [6] is 30 nM. The DC50 in [8] stood at 29 nM.

`O=C(c1ccc(Oc2ccccc2)cc1Cl)c1c[nH]c2ncnc(N[C@H]3CCC[C@H](CO)O3)c12`: the IC50 came out at 0.85 nM in data set [10] and 0.39 nM in [11].

In general, IC50 refers to the point on the concentration scale where inhibition reaches its midpoint. High values mean weaker potency, low ones greater potency. As usually defined, the DC50 is the concentration at which degradation of the target reaches its halfway point. One may read the GI50 as the concentration that inhibits growth by half. The term CLint scaled denotes a measure of how fast metabolising enzymes remove a compound, apart from limits set by blood flow.

The record behind these values is ChEMBL document CHEMBL5120879, “Medicinal Chemistry Strategies for the Development of Bruton's Tyrosine Kinase Inhibitors against Resistance” (J Med Chem, 2022).
